We go through one compound from US7416848B2, “DNA encoding SNORF25 receptor” (H. Lundbeck A/S, priority 1999, dated 2008).

This assay deals with T1, SNORF25 receptor (UniProt Q7TQN8).
T1 construct: Emax of cAMP response
T1 sequence (Q7TQN8 1-468): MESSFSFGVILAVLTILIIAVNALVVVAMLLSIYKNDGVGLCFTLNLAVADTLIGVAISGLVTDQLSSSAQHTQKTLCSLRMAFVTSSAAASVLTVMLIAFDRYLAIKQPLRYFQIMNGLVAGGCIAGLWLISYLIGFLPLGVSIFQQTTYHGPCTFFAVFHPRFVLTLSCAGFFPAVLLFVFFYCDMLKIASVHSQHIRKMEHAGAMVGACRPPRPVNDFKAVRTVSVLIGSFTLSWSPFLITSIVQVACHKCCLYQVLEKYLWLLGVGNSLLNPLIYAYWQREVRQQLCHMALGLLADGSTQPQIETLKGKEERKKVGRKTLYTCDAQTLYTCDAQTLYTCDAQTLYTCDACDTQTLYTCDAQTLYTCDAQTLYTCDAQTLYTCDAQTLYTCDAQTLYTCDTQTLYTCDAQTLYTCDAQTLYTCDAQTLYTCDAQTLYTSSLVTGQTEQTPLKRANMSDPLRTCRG
Nature of the assay: cAMP release in Cos-7 cells transiently transfected with SNORF25. Particulars: SNORF25 transiently transfected Cos-7 cells (FIG. 8). The assay is classed as cell-based. As to the method:
COS-7 cells are grown on 150 mm plates in DMEM with supplements (Dulbecco's Modified Eagle Medium with 10% bovine calf serum, 4 mM glutamine, 100 units/ml penicillin/100 μg/ml streptomycin) at 37° C., 5% CO2. Stock plates of COS-7 cells are trypsinized and split 1:6 every 3–4 days.
A typical protocol for the electroporation method as applied to Cos-7 cells is described as follows. Cells to be used for transfection are split 24 hours prior to the transfection to provide flasks which are subconfluent at the time of transfection. The cells are harvested by trypsinization resuspended in their growth media and counted. 5×10^6 cells are suspended in 300 μl of DMEM and placed into an electroporation cuvette. 8 μg of receptor DNA plus 8 μg of any additional DNA needed (e.g. G protein expression vector, reporter construct, antibiotic resistance marker, mock vector, etc.) is added to the cell suspension, the cuvette is placed into a BioRad Gene Pulser and subjected to an electrical pulse (Gene Pulser settings: 0.25 kV voltage, 950 μF capacitance). […]
The receptor-mediated stimulation or inhibition of cyclic AMP (cAMP) formation may be assayed in cells expressing the receptors. […] The plates are stored at 4° C. for 15 min, and the cAMP content in the stopping solution is measured by radioimmunoassay. Radioactivity may be quantified using a gamma counter equipped with data reduction software. […]

With `CC1=C(/C=C/C(C)=C/C=C/C(C)=C/C(=O)O)C(C)(C)CCC1` [ATRA, all-trans-retinoic acid], the “Emax of cAMP response” value is reported as 200–300%.
